Some test systems named below: DU-145 prostate; MDA-MB-231 breast; MDA-MB-435; PC-3 prostate.
Holding throughout (experiment): growth of human tumour cells (NCI), 48 h

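These data come from cells grown in 96-well plates and exposed to compound for 48 hours at five concentrations. At the GI50, growth is halved. Definition used: TGI = concentration required for complete inhibition of growth.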 Some results are limits rather than exact numbers.

As for `NCCCCCCCCCn1c2c(c3ccccc3c1=O)C(=O)c1ccccc1-2`, the GI50 in the assay on DU-145 prostate is 5.98 µM; in the assay with MDA-MB-231 breast it was 1.13 µM; with MDA-MB-435 it was 9.52 µM; with PC-3 prostate, 10.6 µM. The TGI was 15.9 µM with DU-145 prostate, 11.1 µM in the assay with MDA-MB-231 breast, 19.1 µM with MDA-MB-435 and 29.2 µM with PC-3 prostate.

Turning to `Cc1ccnc(NC(c2ccccc2)c2ccc3cccnc3c2O)c1` (centres undefined), the GI50 was 4.9 µM in the assay with DU-145 prostate, 5.65 µM with MDA-MB-231 breast, 4.18 µM in the assay on MDA-MB-435 and 5.94 µM with PC-3 prostate. Besides, the TGI is > 100 µM in the assay on DU-145 prostate, 97.1 µM in the assay with MDA-MB-231 breast, 30.5 µM in the assay on MDA-MB-435 and > 100 µM with PC-3 prostate.

Regarding `O=C(c1ccccc1)c1c2n(c3c1cc(O)c1ccccc13)CCN2`, the GI50 with DU-145 prostate is 13.2 µM; in the assay with MDA-MB-231 breast, 2.13 µM; in the assay on MDA-MB-435, 1.99 µM; in the assay on PC-3 prostate, 2.69 µM. For the same compound, the TGI with DU-145 prostate amounted to 27.1 µM; in the assay on MDA-MB-231 breast it was 4.51 µM; with MDA-MB-435, 3.73 µM; with PC-3 prostate it was 13 µM.

As for `O=C1Nc2c(ccc(Cl)c2Cl)/C1=C\c1cc(C(F)(F)F)cc(C(F)(F)F)c1`, the GI50 with DU-145 prostate was 5.57 µM; in the assay with MDA-MB-231 breast, 3.74 µM; in the assay with MDA-MB-435, 1.99 µM; in the assay on PC-3 prostate, 1.1 µM. Besides, the TGI is 13.5 µM with DU-145 prostate, 10.8 µM with MDA-MB-231 breast, 7.64 µM in the assay on MDA-MB-435 and 4.51 µM with PC-3 prostate.

On to `O=C(Nc1ccc(Cl)cc1)c1cc2ccccc2cc1OP(=O)(O)O`, for which the GI50 with DU-145 prostate is 3.94 µM; in the assay on MDA-MB-231 breast, 3.01 µM; in the assay on MDA-MB-435, 3.27 µM; in the assay with PC-3 prostate, 2.92 µM. Also, the TGI is 17.8 µM in the assay on DU-145 prostate, 16.6 µM in the assay with MDA-MB-231 breast, 32.3 µM in the assay on MDA-MB-435 and > 100 µM in the assay with PC-3 prostate.

Regarding `COc1ccc2c(c1)CC1N(C)CCC13CCCCC23` (centres undefined), the TGI with DU-145 prostate, in the assay with MDA-MB-231 breast, in the assay on MDA-MB-435 and in the assay on PC-3 prostate was > 100 µM in each case.

As to `COC(=O)[C@H](C)[C@@H]1CC[C@](C)(CCC2=C(C)CCCC2(C)C)OO1`, the TGI with DU-145 prostate, in the assay with MDA-MB-231 breast, with MDA-MB-435 and in the assay on PC-3 prostate was > 25 µM each time.

`COc1c(OC)c(OC)c(-c2cc(=O)c3c(OC)c(OC)c(OC)c(OC)c3o2)c(OC)c1OC`: the TGI in the assay on DU-145 prostate, in the assay with MDA-MB-231 breast and in the assay with MDA-MB-435 was > 100 µM in each case.

Consider `ClCc1ccc(-c2ccc(Cn3cnc4c(Cl)ncnc43)cc2)cc1`, for which the results for the GI50 with DU-145 prostate, in the assay on MDA-MB-231 breast and with PC-3 prostate were 1.49 µM, 1.77 µM and 2.8 µM, respectively. For the same compound, the TGI with DU-145 prostate is 3.36 µM; in the assay on MDA-MB-231 breast, 3.73 µM; in the assay on PC-3 prostate, 9.92 µM.

As for `C=C(C)C1CCC2(C(=O)O)CCC3(C)C(CCC4C5(C)CCC(O)C(C)(C)C5CCC43C)C12` (centres undefined), the TGI with DU-145 prostate was determined as 27.1 µM; in the assay on MDA-MB-231 breast, 10.7 µM; in the assay on MDA-MB-435, 48.4 µM; with PC-3 prostate, 23.8 µM.

As to `CNC(=O)c1cc(Oc2ccc3nc(NC(=O)Nc4cc(C(F)(F)F)cc(C(F)(F)F)c4)sc3c2)ccn1`, the GI50 is 1.25 µM in the assay with DU-145 prostate, 0.829 µM in the assay on MDA-MB-231 breast, 1.04 µM in the assay with MDA-MB-435 and 0.611 µM with PC-3 prostate. Moreover, the TGI in the assay with DU-145 prostate is 2.98 µM; in the assay on MDA-MB-231 breast, 2.62 µM; in the assay on MDA-MB-435 it was 2.7 µM; with PC-3 prostate it was 2.29 µM.

Take `CCOC(=O)Nc1cc(-c2ccc(C)c(NS(C)(=O)=O)c2)nn2c(C)nnc12`: the GI50 with DU-145 prostate is 5.02 µM; in the assay with MDA-MB-231 breast it was 0.807 µM; in the assay with MDA-MB-435 it was 1.33 µM; with PC-3 prostate, 1.36 µM. Also, the TGI in the assay with DU-145 prostate was > 100 µM; with MDA-MB-231 breast it was 20.4 µM; in the assay on MDA-MB-435, 41.7 µM; in the assay on PC-3 prostate, > 100 µM.

In the case of `COc1cc(/C=C2\CC3C4CCC5=CC(=O)CC[C@]5(C)C4CC[C@]3(C)C2=O)ccc1OCCN1CCCCC1` (some centres undefined), the GI50 in the assay on DU-145 prostate is 2.06 µM; in the assay on MDA-MB-231 breast, 1.85 µM; in the assay on MDA-MB-435, 1.97 µM; with PC-3 prostate, 2.33 µM. Besides, the TGI turned out to be 8.33 µM with DU-145 prostate, 5.03 µM in the assay with MDA-MB-231 breast, 4.28 µM with MDA-MB-435 and 12.8 µM in the assay with PC-3 prostate.

Regarding `O=C1c2ccccc2-c2ccccc2C1(Cl)Cl`, the GI50 with DU-145 prostate was 1.47 µM; in the assay with MDA-MB-231 breast it was 1.36 µM; with MDA-MB-435, 0.197 µM; with PC-3 prostate it was 1.08 µM. Also, the TGI in the assay with DU-145 prostate worked out at 2.78 µM; in the assay with MDA-MB-231 breast, 3.63 µM; in the assay on MDA-MB-435 it was 0.372 µM; with PC-3 prostate, 3.31 µM.

Consider `COC1/C=C/OC2(C)Oc3c(C)c(O)c4c(O)c(c(C=NOC(c5ccccc5)c5ccccc5)c(O)c4c3C2=O)NC(=O)/C(C)=C/C=C/C(C)C(O)C(C)C(O)C(C)C(OC(C)=O)C1C` (centres undefined), for which the GI50 in the assay with DU-145 prostate was 2.05 µM; with MDA-MB-231 breast it was 1.35 µM; in the assay on MDA-MB-435 it was 1.18 µM; in the assay on PC-3 prostate, 1.34 µM. Also, the TGI in the assay on DU-145 prostate stood at 6.87 µM; in the assay with MDA-MB-231 breast, 3.49 µM; with MDA-MB-435, 3.01 µM; with PC-3 prostate it was 4.15 µM.

As to `CCCCCCn1c2c(c3c(O)cccc31)C(=O)c1ccccc1-2`, the GI50 in the assay with DU-145 prostate was 15.7 µM; in the assay with MDA-MB-231 breast, 16.3 µM; in the assay with MDA-MB-435, 20.3 µM; in the assay with PC-3 prostate it was 19.6 µM. Also, the TGI stood at 29.7 µM in the assay with DU-145 prostate, 33.4 µM in the assay with MDA-MB-231 breast, 44.9 µM in the assay with MDA-MB-435 and 36.6 µM in the assay on PC-3 prostate.

For the compound `CSc1nc(SC)c2c(C)cn(C3OC(C)C(O)C(O)C3O)c2n1` (centres undefined), the TGI in the assay with DU-145 prostate, in the assay on MDA-MB-231 breast, in the assay with MDA-MB-435 and with PC-3 prostate was > 100 µM in each case.

For `O=C(O)C1C2CCC(O2)C1C(=O)NCc1cccnc1` (centres undefined), the TGI in the assay on DU-145 prostate, in the assay with MDA-MB-231 breast, in the assay on MDA-MB-435 and with PC-3 prostate was > 100 µM throughout.

With `Cn1c(=O)c(-c2c(Cl)cccc2Cl)cc2cnc(Nc3ccc(I)cc3)nc21`, the GI50 was < 0.01 µM with DU-145 prostate, 0.259 µM with MDA-MB-231 breast, < 0.0304 µM in the assay on MDA-MB-435 and < 0.012 µM with PC-3 prostate. Also, the TGI was 0.139 µM in the assay on DU-145 prostate, 1.29 µM in the assay on MDA-MB-231 breast and > 100 µM in the assay with PC-3 prostate.

(Values after PubChem BioAssay (NCI).)
